Test results as given in publication PMC8078842 (PLoS Neglected Tropical Diseases, 2021).

Assays:
[1] = test system: Calmodulin; conditions: Inhibits nNO synthase in vitro; cited from earlier work
[2] = test system: Adenosine, Non-selective; assay: CNS side effect panel, [^3H]NECA; assay type: binding; conditions: pentamidine 1.0E^-5 M
[3] = Drug release from dialysis cells (Ritger-Peppas model); assay type: physicochemical; conditions: 10 mM PTI ± 1% Pluronic, water, 37°C
Protocol: The tube was immersed in a 200 mL closed Duran flask which was placed in a water bath at 37°C for the duration of the experiment.
The data was fitted to Ritger-Peppas model.
Where M and M∞ are the cumulative amounts of drug released at time t and at infinite time, respectively; k, the reaction constant, t the time, n, the diffusional exponent describing the type of regime type: n = 1, case II transport, n = 0.5, Fickian diffusion, 0.5<n<1 non-Fickian diffusion.

[4] = test system: Decarboxylase, Glutamic Acid; assay: CNS side effect panel, [^14C]Glutamic acid; assay type: biochemical; conditions: pentamidine 1.0E^-5 M
[5] = target: Imidazoline, I2 [central]; assay: CNS side effect panel, [^3H]2-BFI; assay type: binding
[6] = human, in vivo; cited from earlier work
[7] = test system: Esterase, Acetylcholine; assay: CNS side effect panel, Acetylthiocholine; assay type: biochemical; conditions: pentamidine 1.0E^-5 M
[8] = test system: Glutamate, Kainate Site (Ionotropic); assay: CNS side effect panel, [^3H]Kainic acid; assay type: binding; conditions: pentamidine 1.0E^-5 M
[9] = target: Oxidase, MAO-B, Peripheral (Rattus norvegicus, UniProt P19643); assay: CNS side effect panel, [^14C]Phenylethylamine; assay type: biochemical
Chain of Oxidase, MAO-B, Peripheral (P19643 whole entry): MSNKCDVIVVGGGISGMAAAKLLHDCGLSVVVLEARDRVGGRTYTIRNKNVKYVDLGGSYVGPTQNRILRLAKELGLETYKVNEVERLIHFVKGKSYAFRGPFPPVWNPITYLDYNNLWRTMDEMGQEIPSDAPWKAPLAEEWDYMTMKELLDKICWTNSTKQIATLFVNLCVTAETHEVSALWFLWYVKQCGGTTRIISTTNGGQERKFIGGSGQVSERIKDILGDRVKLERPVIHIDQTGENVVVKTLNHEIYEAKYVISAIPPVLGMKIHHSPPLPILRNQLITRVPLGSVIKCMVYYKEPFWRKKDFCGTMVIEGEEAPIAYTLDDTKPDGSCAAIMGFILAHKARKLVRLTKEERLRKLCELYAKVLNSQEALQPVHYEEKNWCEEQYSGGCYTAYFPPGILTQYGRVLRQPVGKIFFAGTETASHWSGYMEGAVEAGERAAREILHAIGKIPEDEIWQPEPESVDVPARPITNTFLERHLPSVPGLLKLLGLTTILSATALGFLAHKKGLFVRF

[10] = test system: Glutamate, MK-801 Site (Ionotropic); assay: CNS side effect panel, [^3H]MK-801; assay type: binding; conditions: pentamidine 1.0E^-5 M
[11] = test system: Sodium, Site 2; assay: CNS side effect panel, [^3H]Batrachotoxin A 20-a-Benzo; assay type: binding; conditions: pentamidine 1.0E^-5 M
[12] = test system: P-gp (human MDR1); assay: in vitro; conditions: dog
[13] = target: Histamine, H2 (Cavia porcellus, UniProt P47747); assay: CNS side effect panel, [^125I]-Aminopotentidine; assay type: binding
Chain of Histamine, H2 (P47747 whole entry): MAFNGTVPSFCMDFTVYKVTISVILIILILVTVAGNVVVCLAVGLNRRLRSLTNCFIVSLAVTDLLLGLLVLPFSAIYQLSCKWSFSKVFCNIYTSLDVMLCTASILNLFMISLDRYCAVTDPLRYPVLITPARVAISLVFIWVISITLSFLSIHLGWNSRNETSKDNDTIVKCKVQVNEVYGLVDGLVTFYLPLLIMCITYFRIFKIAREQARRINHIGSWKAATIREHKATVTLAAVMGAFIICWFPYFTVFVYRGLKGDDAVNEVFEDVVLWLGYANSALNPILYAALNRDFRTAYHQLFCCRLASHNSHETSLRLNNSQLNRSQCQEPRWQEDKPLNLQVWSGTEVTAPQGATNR

[14] = test system: GABA A, BDZ, alpha 1 site; assay: CNS side effect panel, [^3H]Flunitrazepam; assay type: binding; conditions: pentamidine 1.0E^-5 M
[15] = target: T1, Oxidase, MAO-A-Peripheral (Rattus norvegicus, UniProt P21396); assay: CNS side effect panel, [^14C] - 5HT; assay type: biochemical
T1 sequence (P21396 1-526): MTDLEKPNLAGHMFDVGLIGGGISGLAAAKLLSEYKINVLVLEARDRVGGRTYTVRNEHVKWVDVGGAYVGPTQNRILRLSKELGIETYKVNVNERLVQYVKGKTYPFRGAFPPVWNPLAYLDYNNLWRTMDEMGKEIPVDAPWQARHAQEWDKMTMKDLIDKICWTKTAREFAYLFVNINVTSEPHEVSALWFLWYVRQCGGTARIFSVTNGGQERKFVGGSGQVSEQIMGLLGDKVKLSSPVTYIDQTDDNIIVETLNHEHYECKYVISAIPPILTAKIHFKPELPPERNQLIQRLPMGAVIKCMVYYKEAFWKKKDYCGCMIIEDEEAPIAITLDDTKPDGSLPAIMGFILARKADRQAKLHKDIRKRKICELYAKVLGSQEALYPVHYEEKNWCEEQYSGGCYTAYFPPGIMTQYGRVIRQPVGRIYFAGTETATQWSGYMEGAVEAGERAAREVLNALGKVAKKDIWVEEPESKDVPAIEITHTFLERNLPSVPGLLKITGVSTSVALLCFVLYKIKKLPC

[16] = test system: Nitric Oxide, NOS (Neuronal-Binding); assay: CNS side effect panel, [^3H]NOARG; conditions: pentamidine 1.0E^-5 M
[17] = target: cloned hKir2.1 potassium channels (Homo sapiens, UniProt P63252); assay: cell-based
Chain of cloned hKir2.1 potassium channels (P63252 whole entry): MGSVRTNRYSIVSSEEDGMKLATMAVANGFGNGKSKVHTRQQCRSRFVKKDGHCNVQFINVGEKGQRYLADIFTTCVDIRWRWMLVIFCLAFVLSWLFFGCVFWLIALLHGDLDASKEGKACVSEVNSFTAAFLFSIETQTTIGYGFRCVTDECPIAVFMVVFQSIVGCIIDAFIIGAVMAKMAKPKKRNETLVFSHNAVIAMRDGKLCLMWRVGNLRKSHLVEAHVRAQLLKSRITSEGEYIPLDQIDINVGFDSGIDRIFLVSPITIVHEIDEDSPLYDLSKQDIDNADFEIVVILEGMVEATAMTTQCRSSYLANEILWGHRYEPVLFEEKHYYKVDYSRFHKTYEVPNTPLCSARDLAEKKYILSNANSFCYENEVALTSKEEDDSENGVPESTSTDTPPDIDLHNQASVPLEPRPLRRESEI

[18] = test system: GABA-B; assay: CNS side effect panel, [^3H]CGP 54626A; assay type: binding; conditions: pentamidine 1.0E^-5 M
[19] = test system: Serine proteases; conditions: cited from earlier work
[20] = target: T2, Opioid, Orphanin, ORL1 (h) (Homo sapiens, UniProt P41146); assay: CNS side effect panel, [^3H] Nociceptin; assay type: binding; conditions: pentamidine 1.0E^-5 M
T2 construct: purchased Perkin-Elmer Science Discovery Systems (NovaScreen), customised CNS screening panel
T2 sequence (P41146 whole entry): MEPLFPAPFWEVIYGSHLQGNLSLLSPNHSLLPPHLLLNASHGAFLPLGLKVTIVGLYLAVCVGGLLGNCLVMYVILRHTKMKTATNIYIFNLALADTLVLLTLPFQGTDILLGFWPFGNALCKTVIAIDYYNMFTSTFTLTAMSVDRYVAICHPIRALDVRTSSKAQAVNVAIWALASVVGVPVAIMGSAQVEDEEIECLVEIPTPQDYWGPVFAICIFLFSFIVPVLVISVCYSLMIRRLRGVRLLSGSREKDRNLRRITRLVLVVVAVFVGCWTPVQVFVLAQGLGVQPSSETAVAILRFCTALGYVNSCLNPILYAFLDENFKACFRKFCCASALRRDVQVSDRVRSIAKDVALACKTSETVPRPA

[21] = target: T3, Endothelin, ET-B (h) (Homo sapiens, UniProt P24530); assay: CNS side effect panel, [^125I]-Endothelin-1; assay type: binding; conditions: pentamidine 1.0E^-5 M
T3 construct: purchased Perkin-Elmer Science Discovery Systems (NovaScreen), customised CNS screening panel
T3 sequence (P24530 27-442): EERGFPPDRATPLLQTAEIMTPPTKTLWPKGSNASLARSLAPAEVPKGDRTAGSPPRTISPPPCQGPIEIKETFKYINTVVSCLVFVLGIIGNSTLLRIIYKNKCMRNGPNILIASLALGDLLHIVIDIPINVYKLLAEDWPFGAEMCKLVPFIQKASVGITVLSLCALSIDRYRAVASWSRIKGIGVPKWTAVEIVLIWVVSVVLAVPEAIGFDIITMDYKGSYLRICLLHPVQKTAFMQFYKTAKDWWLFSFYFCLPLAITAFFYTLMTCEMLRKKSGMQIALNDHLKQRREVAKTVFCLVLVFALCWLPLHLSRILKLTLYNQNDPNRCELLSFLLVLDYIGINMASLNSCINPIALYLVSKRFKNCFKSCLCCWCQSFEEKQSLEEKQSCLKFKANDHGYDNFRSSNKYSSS

## N=C(N)c1ccc(OCCCCCOc2ccc(C(=N)N)cc2)cc1 [Pentamidine, 1,5-bis-4ρ-amidinophenoxypentane]
[1]
  Affinity: 30 µM
[2]
  Percent Inhibition: 1.28%
[3]
  reaction constant (k, Ritger-Peppas): ~0.3
  reaction type (diffusional exponent n, Ritger-Peppas): ca. 0.5
[4]
  Percent Inhibition: -1.41%
[5]; Imidazoline 1_2, concentration-response
  Ki: 1 nM
[5]; pentamidine 1.0E^-5 M
  Percent Inhibition: 101.03%
[6]
  incidence of diabetes mellitus: occasional but irreversible
  incidence of hypoglycaemia: 5-40%
[7]
  Percent Inhibition: 23.21%
[8]
  Percent Inhibition: -13.63%
[9]; Monoamine oxidase B, concentration-response
  Ki: 181 nM
[9]; pentamidine 1.0E^-5 M
  Percent Inhibition: 99.99%
[10]
  Percent Inhibition: 6.25%
[11]
  Percent Inhibition: 46.94%
[12]; MDCK-MDR1, pH 7.4, Papp B2A Replicate 1
  Papp B→A at 1 h, 10 µM: 0.336 ×10⁻⁶ cm/s
[12]; MDCK-MDR1, pH 7.4, Papp B2A Replicate 2
  Papp B→A at 1 h, 10 µM: 0.357 ×10⁻⁶ cm/s
[12]; MDCK-MDR1, pH 7.4, Papp basal to apical
  Papp B→A at 1 h, 20 µM: 0.418 ×10⁻⁶ cm/s
[13]
  Ki: 7210 nM
[13]; pentamidine 1.0E^-5 M
  Percent Inhibition: 71.07%
[14]
  Percent Inhibition: 20.54%
[15]; Monoamine oxidase A, concentration-response
  Ki: 217 nM
[15]; pentamidine 1.0E^-5 M
  Percent Inhibition: 89.42%
[16]
  Percent Inhibition: 12.98%
[17]
  IC50: > 10000 nM
[18]
  Percent Inhibition: 10.74%
[19]
  Affinity: 4000 µM
[20]
  Percent Inhibition: 36.62%
[21]
  Percent Inhibition: 4.50%
